Results published in ChEMBL document CHEMBL1201862, “PubChem BioAssay data set” (2004).
Calls of active or inactive are those of the source.

What was measured:
[1] = biological target: T1, Estrogen receptor (Homo sapiens, UniProt P03372); assay: blockers of SRC-3 recruitment to ERα – biochemical, ELISA, streptavidin-HRP readout, orthogonal assay, confirmation (AID 1079)
T1 sequence (P03372 whole entry): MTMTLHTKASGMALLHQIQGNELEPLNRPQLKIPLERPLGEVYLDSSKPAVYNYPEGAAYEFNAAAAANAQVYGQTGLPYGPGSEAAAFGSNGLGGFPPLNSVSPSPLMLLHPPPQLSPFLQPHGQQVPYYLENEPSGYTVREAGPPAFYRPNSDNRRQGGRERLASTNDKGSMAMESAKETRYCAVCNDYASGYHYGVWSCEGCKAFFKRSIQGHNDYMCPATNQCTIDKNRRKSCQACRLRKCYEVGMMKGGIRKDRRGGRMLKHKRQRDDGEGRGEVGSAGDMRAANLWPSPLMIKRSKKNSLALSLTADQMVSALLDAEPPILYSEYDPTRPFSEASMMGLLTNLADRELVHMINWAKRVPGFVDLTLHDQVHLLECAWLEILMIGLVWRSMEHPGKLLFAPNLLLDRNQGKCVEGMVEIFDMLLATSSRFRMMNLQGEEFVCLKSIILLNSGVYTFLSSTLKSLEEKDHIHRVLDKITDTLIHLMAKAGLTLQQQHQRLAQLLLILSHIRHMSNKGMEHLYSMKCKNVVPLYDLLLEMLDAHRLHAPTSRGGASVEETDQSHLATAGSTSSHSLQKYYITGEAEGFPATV

[2] = biological target: T2, Neuropeptide Y receptor type 1 (Homo sapiens, UniProt P25929); assay: Fluorescence-based dose response cell-based high-throughput screening assay for agonists of NPY-Y1. [Related pubchem assays: 1697 (Screening assay (NPY-Y1 agonists).), 1359 (Screening assay (NPY-Y2 potentiators or agonists).), 1304 (Screening assay (NPY-Y1 potentiators or agonists).), 1704 (Screening assay (CNGC inhibitors).), 1791 (Summary AID.)]; type: functional
T2 sequence (P25929 whole entry): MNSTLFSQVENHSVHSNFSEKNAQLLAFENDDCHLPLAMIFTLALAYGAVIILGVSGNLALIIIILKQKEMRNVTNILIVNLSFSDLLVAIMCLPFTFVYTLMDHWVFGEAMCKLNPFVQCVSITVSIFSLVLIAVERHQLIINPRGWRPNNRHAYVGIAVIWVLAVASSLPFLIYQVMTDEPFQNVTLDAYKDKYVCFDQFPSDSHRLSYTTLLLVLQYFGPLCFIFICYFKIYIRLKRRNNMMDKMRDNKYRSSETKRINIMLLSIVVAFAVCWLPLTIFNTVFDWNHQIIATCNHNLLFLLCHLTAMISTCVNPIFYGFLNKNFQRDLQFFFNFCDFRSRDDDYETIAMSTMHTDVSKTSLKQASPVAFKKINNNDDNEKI

[3] = system: HEK293; assay: Fluorescence-based counterscreen for potentiators or agonists of NPY-Y1: cell-based high-throughput dose response assay for inhibitors of cyclic nucleotide gated ion channel (CNGC) activity. In this assay, the parental HEK293 cell line transfected with a cyclic-nucleotide gated ion channel (CNGC)-based cAMP sensor is used to measure inhibition of isoproterenol-induced CNGC …; type: functional; conditions: Homo sapiens
[4] = biological target: T3, Neuropeptide Y receptor type 2 (Homo sapiens, UniProt P49146); assay: Fluorescence-based counterscreen for agonists of NPY-Y1: cell-based high-throughput dose response assay for agonists of NPY-Y2.; type: functional
T3 sequence (P49146 whole entry, the tested form may be a part): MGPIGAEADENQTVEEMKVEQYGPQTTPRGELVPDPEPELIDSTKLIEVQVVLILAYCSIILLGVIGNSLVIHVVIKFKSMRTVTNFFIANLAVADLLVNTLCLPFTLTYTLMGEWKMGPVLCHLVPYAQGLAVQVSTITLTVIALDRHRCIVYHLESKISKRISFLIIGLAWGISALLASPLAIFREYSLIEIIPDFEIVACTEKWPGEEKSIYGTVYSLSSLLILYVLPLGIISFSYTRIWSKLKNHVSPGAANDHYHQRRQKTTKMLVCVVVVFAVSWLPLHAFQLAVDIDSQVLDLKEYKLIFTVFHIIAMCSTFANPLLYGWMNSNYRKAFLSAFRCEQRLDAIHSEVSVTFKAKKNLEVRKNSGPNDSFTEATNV

[5] = biological target: T1, Estrogen receptor; assay: ERα coactivator recruitment enhancers – biochemical, TR-FRET, ERα LBD, dose response (AID 737)
[6] = Fluorescence Cell-Based Dose Response to Identify Inhibitors of Thrombin Receptor-Activating Peptide SFLLRN-Mediated P-Selectin Induction on Platelets. [Related pubchem assays: 1663 (Primary HTS), 1889 (retest at dose ), 1891 (counterscreen), 1678 (Project Summary)]; type: functional
[7] = system: Streptococcus; assay: GAS UMAA2166 growth inhibition – luminescence, BacTiterGlo, counter-screen for streptokinase expression inhibitor project, dose response (AID 1915); type: functional, organism-based;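 also: potency for reduction of bacterial viability or growth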
[8] = system: Streptococcus sp. 'group A'; assay: Streptococcus pyogenes SK(-)GAS viability under kanamycin – luminescence, BacTiterGlo, confirmation, counter-screen for streptokinase expression inhibitor project, dose response (AID 1900); type: functional, organism-based
[9] = system: HeLa; assay: viability loss in HeLa cells – cell-based, 24 h, cherry-picked samples, cytotoxicity control, dose response (AID 504726); type: functional; conditions: Homo sapiens;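 also: potency for cytotoxicity as loss of luminescence signal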
[10] = Luminescence Cell-Based Dose Confirmation HTS to Identify Inhibitors of Platelet Dense Granule Release. [Related pubchem assays: 1663 (Primary HTS), 1678 (Summary of Project)]; type: functional
[11] = biological target: T4, Eukaryotic translation initiation factor 2-alpha kinase 3 (Homo sapiens, UniProt Q9NZJ5); assay: Dose response cell-based high-throughput screening assay to measure PERK inhibition. [Related pubchem assays: 1416 ]; type: functional
T4 sequence (Q9NZJ5 whole entry): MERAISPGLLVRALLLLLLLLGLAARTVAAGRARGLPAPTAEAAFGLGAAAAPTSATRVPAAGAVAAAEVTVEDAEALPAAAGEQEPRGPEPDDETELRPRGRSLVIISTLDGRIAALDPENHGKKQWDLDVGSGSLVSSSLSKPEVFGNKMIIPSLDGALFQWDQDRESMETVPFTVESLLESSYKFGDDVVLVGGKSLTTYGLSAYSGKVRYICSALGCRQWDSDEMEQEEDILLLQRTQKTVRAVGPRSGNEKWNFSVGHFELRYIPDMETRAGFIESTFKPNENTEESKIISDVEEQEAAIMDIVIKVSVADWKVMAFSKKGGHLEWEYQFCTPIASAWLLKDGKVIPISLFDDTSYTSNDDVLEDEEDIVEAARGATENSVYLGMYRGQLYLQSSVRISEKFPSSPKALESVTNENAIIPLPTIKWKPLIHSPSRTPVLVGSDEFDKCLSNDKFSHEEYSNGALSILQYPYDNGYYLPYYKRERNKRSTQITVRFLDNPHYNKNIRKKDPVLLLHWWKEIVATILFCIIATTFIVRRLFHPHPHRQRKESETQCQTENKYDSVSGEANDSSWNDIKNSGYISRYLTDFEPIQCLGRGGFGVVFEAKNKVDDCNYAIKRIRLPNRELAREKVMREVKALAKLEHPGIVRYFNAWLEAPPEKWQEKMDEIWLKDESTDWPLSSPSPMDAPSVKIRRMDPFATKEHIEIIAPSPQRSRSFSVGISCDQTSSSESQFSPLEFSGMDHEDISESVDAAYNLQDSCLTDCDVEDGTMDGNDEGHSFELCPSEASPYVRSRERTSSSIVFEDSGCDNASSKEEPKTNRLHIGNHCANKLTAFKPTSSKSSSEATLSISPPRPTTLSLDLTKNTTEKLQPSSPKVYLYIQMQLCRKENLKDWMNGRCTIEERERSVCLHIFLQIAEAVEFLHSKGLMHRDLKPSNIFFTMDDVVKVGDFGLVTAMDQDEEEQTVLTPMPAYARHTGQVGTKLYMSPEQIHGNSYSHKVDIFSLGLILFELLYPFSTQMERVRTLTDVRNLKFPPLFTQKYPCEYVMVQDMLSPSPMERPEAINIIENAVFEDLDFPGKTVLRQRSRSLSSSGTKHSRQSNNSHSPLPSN

[12] = system: HEK293; assay: Fluorescence-based counterscreen for potentiators or agonists of NPY-Y2: cell-based high-throughput dose response assay to identify inhibitors of cyclic nucleotide gated ion channel (CNGC) activity. In this assay, the parental HEK293 cell line transfected with a cyclic-nucleotide gated ion channel (CNGC)-based cAMP sensor is used to measure inhibition of isoproterenol-induced CNGC activity by test compound.; type: functional; conditions: Homo sapiens
[13] = biological target: T4, Eukaryotic translation initiation factor 2-alpha kinase 3; assay: Counterscreen assay for PERK inhibitors: Dose response cell-based high throughput screening assay to measure inhibition of PERK at 6 hours. [Related pubchem assays: 1522, 1416 ]; type: functional
[14] = biological target: T2, Neuropeptide Y receptor type 1; assay: Fluorescence-based counterscreen for agonists of NPY-Y2: cell-based high-throughput dose response assay for agonists of NPY-Y1.; type: functional
[15] = biological target: T3, Neuropeptide Y receptor type 2; assay: Fluorescence-based cell-based high-throughput dose response assay for agonists of NPY-Y2. [Related pubchem assays: 1703 (Screening assay (CNGC inhibitors).), 1359 (Screening assay (NPY-Y2 potentiators or agonists).), 1304 (Screening assay (NPY-Y1 potentiators or agonists).), 1710 (Screening assay (NPY-Y2 agonists).), 1791 (Summary AID.)]; type: functional
[16] = biological target: Dual specificity protein phosphatase 3 (Homo sapiens, UniProt P51452); assay: inhibition constants for human DUSP3 – biochemical, colorimetric, SAR follow-up (AID 2004)
Sequence of Dual specificity protein phosphatase 3 (P51452 whole entry): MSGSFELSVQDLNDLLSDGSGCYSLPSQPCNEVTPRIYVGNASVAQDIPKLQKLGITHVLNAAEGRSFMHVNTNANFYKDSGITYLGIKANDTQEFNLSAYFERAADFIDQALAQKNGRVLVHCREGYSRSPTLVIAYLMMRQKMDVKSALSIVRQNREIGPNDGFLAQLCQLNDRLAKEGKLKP

[17] = HEK-293T cell viability reduction – luminescence, B-cell screen hits, cytotoxicity control for BCR NF-kB inhibitor project, dose response (AID 489021); type: functional, cell-based;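 also: HEK-293T cells carrying an NF-kB luciferase reporter; cells exposed to compound for about 14 hours before viability readout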
[18] = biological target: Eukaryotic translation initiation factor 4H (Homo sapiens, UniProt Q15056); assay: eIF4H binding inhibition – biochemical, uHTS, fluorescence polarization, translation initiation inhibitor project, primary screen (AID 2012)
[19] = biological target: Luciferin 4-monooxygenase (Photinus pyralis, UniProt P08659); assay: inhibition of purified Photinus pyralis luciferase – biochemical, luminescence, dose response (AID 1891)
[20] = biological target: Polyadenylate-binding protein 1 (Homo sapiens, UniProt P11940); assay: blockers of PABP interaction with poly(A) – biochemical, fluorescence polarization, […] (AID 2014)
[21] = biological target: Mucolipin-3 (Homo sapiens, UniProt Q8TDD5); assay: Dose response cell-based high-throughput screening assay for agonists of the transient receptor potential channel ML3 (TRPML3). [Related pubchem assays: 1526, 1424, 1448 ]; type: functional
Sequence of Mucolipin-3 (Q8TDD5 whole entry): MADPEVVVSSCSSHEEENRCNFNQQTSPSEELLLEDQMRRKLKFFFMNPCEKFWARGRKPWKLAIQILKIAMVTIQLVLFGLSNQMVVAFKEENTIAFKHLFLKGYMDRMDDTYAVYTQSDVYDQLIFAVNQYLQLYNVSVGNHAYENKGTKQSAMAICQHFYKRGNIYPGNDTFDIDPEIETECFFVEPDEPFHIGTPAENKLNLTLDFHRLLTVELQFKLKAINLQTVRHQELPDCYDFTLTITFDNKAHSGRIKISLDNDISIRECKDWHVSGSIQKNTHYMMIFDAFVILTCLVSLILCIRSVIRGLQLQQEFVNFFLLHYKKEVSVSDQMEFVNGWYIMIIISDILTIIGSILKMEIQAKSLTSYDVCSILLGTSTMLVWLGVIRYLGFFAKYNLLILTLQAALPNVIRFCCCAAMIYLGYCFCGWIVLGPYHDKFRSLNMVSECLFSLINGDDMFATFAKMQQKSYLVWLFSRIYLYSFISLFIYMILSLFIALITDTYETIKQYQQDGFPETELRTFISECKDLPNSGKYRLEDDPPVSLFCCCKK

[22] = biological target: Ion channel NompC (Danio rerio, UniProt Q7T1G6); assay: Fluorescence counterscreen assay for TRPML3 agonists: dose response cell-based high-throughput screening assay to identify agonists of the transient receptor potential channel N1 (TRPN1). [Related pubchem assays: 1526, 1424, 1448 ]; type: functional
[23] = biological target: DNA damage-inducible transcript 3 protein (Mus musculus, UniProt P35639); type: functional, Cricetulus griseus
[24] = biological target: X-box-binding protein 1 (Homo sapiens, UniProt P17861); type: functional, Cricetulus griseus;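 also: confirmatory dose-response counter-screen serving a CHOP assay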
[25] = system: HEK293; assay: cells; conditions: Homo sapiens
[26] = biological target: Tumor necrosis factor (Homo sapiens, UniProt P01375); assay: analog potency on TNFa NF-kB signaling – cell-based, revised, SAR follow-up (AID 2337); type: functional
[27] = system: HEK293; assay: cells; type: functional, cell-based; conditions: Homo sapiens
[28] = system: HEK293; assay: cells; type: functional, cell-based; conditions: Homo sapiens; remark: listed apart in the source
[29] = biological target: T5, Nucleotide-binding oligomerization domain-containing protein 2 (Homo sapiens, UniProt Q9HC29); assay: PubChem AID 2334; type: functional
T5 sequence (Q9HC29 whole entry, the tested form may be a part): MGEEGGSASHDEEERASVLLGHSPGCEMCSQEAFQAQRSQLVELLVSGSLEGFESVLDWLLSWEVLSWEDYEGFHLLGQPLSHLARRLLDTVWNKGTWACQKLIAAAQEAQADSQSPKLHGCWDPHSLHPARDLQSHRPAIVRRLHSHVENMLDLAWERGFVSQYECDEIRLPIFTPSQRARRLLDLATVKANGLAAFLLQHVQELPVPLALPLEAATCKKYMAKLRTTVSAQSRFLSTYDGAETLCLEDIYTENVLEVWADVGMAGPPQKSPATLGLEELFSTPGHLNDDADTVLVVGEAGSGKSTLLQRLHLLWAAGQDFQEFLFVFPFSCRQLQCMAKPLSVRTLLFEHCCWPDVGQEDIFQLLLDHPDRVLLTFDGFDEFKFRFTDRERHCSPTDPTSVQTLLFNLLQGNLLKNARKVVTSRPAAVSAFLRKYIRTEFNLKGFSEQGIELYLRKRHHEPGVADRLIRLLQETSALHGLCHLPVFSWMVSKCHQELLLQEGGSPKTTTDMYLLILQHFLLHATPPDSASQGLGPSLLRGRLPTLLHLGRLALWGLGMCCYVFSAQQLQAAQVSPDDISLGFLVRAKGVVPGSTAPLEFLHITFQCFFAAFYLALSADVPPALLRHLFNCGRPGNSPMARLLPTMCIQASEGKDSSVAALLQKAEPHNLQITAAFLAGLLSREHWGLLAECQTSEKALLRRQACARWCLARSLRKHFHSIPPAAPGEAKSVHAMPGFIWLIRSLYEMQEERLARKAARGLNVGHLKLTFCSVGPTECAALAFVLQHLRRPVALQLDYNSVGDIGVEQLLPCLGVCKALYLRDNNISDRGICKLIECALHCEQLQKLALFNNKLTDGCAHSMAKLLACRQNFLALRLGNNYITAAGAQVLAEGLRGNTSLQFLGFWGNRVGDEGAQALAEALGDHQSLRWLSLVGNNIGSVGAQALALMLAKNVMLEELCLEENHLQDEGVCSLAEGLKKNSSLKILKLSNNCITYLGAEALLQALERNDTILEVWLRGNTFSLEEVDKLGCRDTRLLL

[30] = system: HEK293; assay: cells; type: functional, cell-based; conditions: Homo sapiens; remark: listed apart in the source
[31] = biological target: T5, Nucleotide-binding oligomerization domain-containing protein 2; assay: inhibition of NOD2-driven NF-kB reporter – cell-based, luminescence, uHTS, HEK293 (AID 1566); type: functional
[32] = biological target: T6, Nucleotide-binding oligomerization domain-containing protein 1 (Homo sapiens, UniProt Q9Y239); assay: blockers of NOD1 pathway activity – revised, SAR follow-up (AID 2333); type: functional
T6 sequence (Q9Y239 whole entry): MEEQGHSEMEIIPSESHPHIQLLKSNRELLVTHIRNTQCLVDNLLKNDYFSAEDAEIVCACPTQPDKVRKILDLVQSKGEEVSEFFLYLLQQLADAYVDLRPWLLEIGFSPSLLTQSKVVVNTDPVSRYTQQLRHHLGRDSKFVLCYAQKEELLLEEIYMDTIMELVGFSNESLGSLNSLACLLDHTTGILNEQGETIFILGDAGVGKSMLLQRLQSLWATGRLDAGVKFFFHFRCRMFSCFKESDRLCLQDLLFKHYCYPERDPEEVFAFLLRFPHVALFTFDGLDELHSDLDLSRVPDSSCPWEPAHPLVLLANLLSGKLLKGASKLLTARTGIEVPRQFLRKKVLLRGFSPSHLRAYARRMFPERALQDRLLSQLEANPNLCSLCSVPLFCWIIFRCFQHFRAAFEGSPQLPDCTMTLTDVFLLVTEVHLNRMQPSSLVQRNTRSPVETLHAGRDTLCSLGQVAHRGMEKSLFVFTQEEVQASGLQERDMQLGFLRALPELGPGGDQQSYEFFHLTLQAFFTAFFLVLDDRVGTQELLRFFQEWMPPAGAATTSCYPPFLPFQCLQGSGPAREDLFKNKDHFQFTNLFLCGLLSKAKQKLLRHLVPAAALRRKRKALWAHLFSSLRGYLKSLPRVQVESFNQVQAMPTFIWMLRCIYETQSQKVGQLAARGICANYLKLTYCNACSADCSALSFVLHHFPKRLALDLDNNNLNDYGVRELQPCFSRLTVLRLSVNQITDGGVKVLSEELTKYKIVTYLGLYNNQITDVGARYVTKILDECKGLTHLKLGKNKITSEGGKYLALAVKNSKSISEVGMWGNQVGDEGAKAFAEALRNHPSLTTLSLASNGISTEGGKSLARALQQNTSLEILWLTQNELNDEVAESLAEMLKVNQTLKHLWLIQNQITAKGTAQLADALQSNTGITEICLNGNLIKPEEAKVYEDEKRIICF

[33] = system: HEK293; assay: NOD2 signaling inhibitors in MDP-stimulated cells, cell-based, uHTS, luminescence (AID 2001); type: functional; conditions: Homo sapiens
[34] = system: HEK293; assay: inhibition of NOD1-driven NF-kB reporter – cell-based, luminescence, uHTS, primary screen (AID 1578); type: functional; conditions: Homo sapiens
[35] = biological target: Mothers against decapentaplegic homolog 3 (Homo sapiens, UniProt P84022); assay: blockers of Smad3 complex formation in lysate – cell lysate, secondary confirmation, chemiluminescent ELISA, HEK293 lysate, dose response (AID 1058); type: functional
[36] = biological target: Transitional endoplasmic reticulum ATPase (Homo sapiens, UniProt P55072); assay: p97 ATPase inhibitors, dose response, biochemical (AID 1534)
Sequence of Transitional endoplasmic reticulum ATPase (Homo sapiens, UniProt P55072) (P55072 whole entry): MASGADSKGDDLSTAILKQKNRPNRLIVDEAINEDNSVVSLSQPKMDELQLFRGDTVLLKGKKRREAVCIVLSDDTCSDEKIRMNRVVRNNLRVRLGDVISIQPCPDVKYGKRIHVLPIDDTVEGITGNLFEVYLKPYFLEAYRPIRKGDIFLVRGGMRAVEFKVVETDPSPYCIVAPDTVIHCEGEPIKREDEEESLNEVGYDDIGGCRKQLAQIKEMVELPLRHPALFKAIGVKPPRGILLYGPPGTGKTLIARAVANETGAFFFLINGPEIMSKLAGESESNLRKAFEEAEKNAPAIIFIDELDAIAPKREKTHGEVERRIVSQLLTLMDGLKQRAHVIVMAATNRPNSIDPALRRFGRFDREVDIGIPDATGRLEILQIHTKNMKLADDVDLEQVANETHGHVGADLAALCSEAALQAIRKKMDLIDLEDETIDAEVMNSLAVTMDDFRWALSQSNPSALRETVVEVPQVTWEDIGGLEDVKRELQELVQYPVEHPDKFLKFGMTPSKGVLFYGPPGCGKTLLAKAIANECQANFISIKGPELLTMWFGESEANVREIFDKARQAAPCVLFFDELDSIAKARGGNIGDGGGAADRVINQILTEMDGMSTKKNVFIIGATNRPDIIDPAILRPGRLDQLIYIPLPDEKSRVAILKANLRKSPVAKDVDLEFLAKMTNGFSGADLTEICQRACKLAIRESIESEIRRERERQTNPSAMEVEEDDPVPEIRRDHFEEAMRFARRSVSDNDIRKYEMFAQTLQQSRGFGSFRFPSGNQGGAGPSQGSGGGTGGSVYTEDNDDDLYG

[37] = biological target: Eukaryotic translation initiation factor 4E (Mus musculus, UniProt P63073); assay: blockers of eIF4G binding by eIF4E – biochemical, TR-FRET, dose response (AID 855); type: functional;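 also: potency for disrupting eIF4E binding to eIF4GI seen as loss of FRET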
Sequence of Eukaryotic translation initiation factor 4E (P63073 whole entry): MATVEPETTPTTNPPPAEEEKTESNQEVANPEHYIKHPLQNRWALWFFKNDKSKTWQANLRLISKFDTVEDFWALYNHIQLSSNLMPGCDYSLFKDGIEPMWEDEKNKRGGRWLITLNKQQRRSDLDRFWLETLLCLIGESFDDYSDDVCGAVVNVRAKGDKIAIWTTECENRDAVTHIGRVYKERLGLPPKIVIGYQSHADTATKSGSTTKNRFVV

[38] = biological target: Transitional endoplasmic reticulum ATPase (Homo sapiens, UniProt P55072, C522A); assay: C522A mutant p97 ATPase inhibitors, dose response, counter-screen for p97 inhibitor project, biochemical, luminescence (AID 1544)

## O=C(CCCCCn1c(=S)[nH]c2ccccc2c1=O)N1CCN(c2ncccn2)CC1
[1]
  IC50: 0.12 µM (not active)

## Cc1ccccc1OCC(O)CN1CCN(CC(O)COc2ccccc2C)CC1 (stereo unspecified)
[2]
  EC50: > 35.4 µM (not active)
[3]
  IC50: 12 µM (not active)
[4]
  EC50: > 35.4 µM (not active)

## CC(C)CCNC(=O)COc1ccc2c3c(c(=O)oc2c1)CCC3
[5]
  EC50: 13.3 µM (not active)

## Oc1nc2c(s1)C=Nc1ccccc1N2
[6]
  EC50: < 0.3 µM (active)
[7]
  EC50: > 150 µM (not active)
[8]
  EC50: > 150 µM (not active)
[9]
  AC50: 71.5 µM (active)
[10]
  EC50: 1.17 µM (active)

## COCCOC(=O)C(CC(=O)O)NCc1ccco1 (stereo unspecified)
[11]
  EC50: > 55.7 µM (not active)
[12]
  EC50: > 35.4 µM (not active)
[13]
  EC50: > 55.7 µM (not active)
[14]
  EC50: > 35.4 µM (not active)
[15]
  EC50: > 35.4 µM (not active)

## CC(C)=C1C(=O)NN(c2ccccc2)C1=O
[16]
  Ki: 71 µM (inactive)

## CCCCn1c2c(c(=N)c3ccccc31)CCC2
[17]
  IC50: > 80 µM (inactive)
[18]
  IC50: > 100 µM (inactive)
[19]
  EC50: > 112 µM (not active)
[20]
  IC50: 3.5 µM (active)
[10]
  EC50: 1.25 µM (active)

## COc1ccc(C(C(=O)NC2CCCC2)N(Cc2ccccc2)C(=O)c2nsc(Cl)c2Cl)cc1 (stereo unspecified)
[21]
  EC50: > 29.9 µM (not active)
[22]
  EC50: > 29.9 µM (not active)

## Cc1cc(C)c2nc(-c3ccccn3)cc(C(=O)Nc3cc(C)on3)c2c1
[23]
  Absolute IC50 (CHOP): 10 µM
[24]
  Absolute IC50 (XBP1): 10 µM

## CCCCCCCn1c(=O)c(C(=O)Nc2cnccn2)c(O)c2ccccc21
[25]
  IC50: > 20 µM (inactive)
[26]
  IC50: 3.18 µM (active)
[27]
  IC50: > 20 µM (inactive)
[28]
  IC50: > 20 µM (inactive)
[7]
  EC50: 6.65 µM (active)
[29]
  IC50: 8.05 µM (active)
[30]
  IC50: > 20 µM (inactive)
[8]
  EC50: 2.88 µM (active)
[31]
  EC50: 7.83 µM (active)
[32]
  IC50: 5.6 µM (active)
[33]
  IC50: 6.85 µM (active)
[34]
  EC50: 6.35 µM (active)

## O=c1cc2oc3cc(O)c(O)cc3c(-c3ccccc3)c-2cc1O
[35]
  IC50: < 1.25 µM (not active)

## CN(C)[C@@H]1C(O)=C(C(N)=O)C(=O)[C@@]2(O)C(O)=C3C(=O)c4c(O)cccc4[C@@](C)(O)[C@H]3[C@H](O)[C@@H]12 [OXYTETRACYCLINE]
[36]
  IC50: > 50 µM (not active)
[37]
  IC50: 50 µM (inactive)
[38]
  IC50: > 50 µM (not active)
